Assay results published in patent US20250382332A1, “NOVEL ALPHA-FACTOR BASED PEPTIDES WITH ANTIFUNGAL ACTIVITY” (INVAIO SCIENCES, INC., priority 2024, published 2025).
Peptide text beside a SMILES is read from it.

Tested on: Botrytis cinerea (B05.10)
Assay: Resazurin antifungal assay of 180 alpha-factor peptide variants towards Botrytis (Example 2)
Assay type: cell-based
Conditions: % inhibition of fungal growth, Botrytis conidia, resazurin; for Inhibition at 10 μM: peptide 10 μM; for Inhibition at 15 μM: peptide 15 μM; for Inhibition at 20 μM: peptide 20 μM; for Inhibition at 50 μM: peptide 50 μM; for Inhibition at 100 μM: peptide 100 μM
Protocol: The antifungal activity of 180 alpha-factor peptide variants towards Botrytis was tested. Experimental design:
Peptides corresponding to SEQ ID NO: 1-180 were chemically synthesized using the solid-phase synthesis method and resuspended in water to a stock solution of 1 mM. The stock solution was aliquoted in cryovials and stored at −80° C.
The Botrytis cinerea culture (B05.10) isolate was acquired from the Centraalbureau voor Schimmelcultures, the Netherlands. The Botrytis fungus was propagated on 0.5% V8 agar plates (200 ml V8 Juice, 3 g CaCO3, 15 g agar, 800-ml millipore water) at 20° C., in a 12 h photoperiod for 21 days.
Fungal conidia were harvested by scraping a Botrytis plate flooded with 1 ml water with 0.1% Tween 80 solution. Conidia were then collected in a 50 ml falcon tube by passing the solution through a 40 micron filter. The solution was then centrifuged at 6000 rpm and the pellet was resuspended in 1 ml of 20% glycerol. The conidia concentration of the resulting solution was counted using a hemocytometer. The stock was diluted to […] using 20% glycerol and frozen in 100 μl aliquots in −80° C. until further use.
Peptides were tested for activity against Botrytis, using the resazurin assay. For this, fungal stock conidia was first diluted to 5000 conidia/well. 50 μl of the spore suspension was added to each well of the sterile 96-well clear bottom testing plate and mixed with 50 μl of peptide solutions to a final concentration of 100, 50, 20, 15 and 10 μM. The plate was incubated for 24 h at 20° C. After 24 h, 10 μl of resazurin dye was added to the microtiter plate and incubated again for […]. Fluorescence was measured at 570/620 nm after 4 h of incubation with resazurin.
Growth inhibition was calculated by subtracting the fluorescence values of conidia only wells from sample wells and depicted as % inhibition of fungal growth. Four technical replicates were used for all treatments.

Row | SMILES | Inhibition at 10 μM | Inhibition at 15 μM | Inhibition at 20 μM | Inhibition at 50 μM | Inhibition at 100 μM
1 | CSCC[C@H](NC(=O)[C@@H]1CCCN1C(=O)[C@H](CCC(N)=O)NC(=O)CNC(=O)[C@@H]1CCCN1C(=O)[C@H](CCCCN)NC(=O)[C@H](Cc1ccccc1)NC(=O)[C@H](CCCCN)NC(=O)[C@H](CC(C)C)NC(=O)[C@@H](NC(=O)[C@H](Cc1c[nH]cn1)NC(=O)[C@@H](N)CCCCN)C(C)C)C(=O)N[C@@H](Cc1ccc(O)cc1)C(=O)O [compound 87] (H-KHVLKFKPGQPMY-OH; N-terminus and C-terminus assumed) | <90% | <90% | 98.89% | 100% | 100%
2 | CC[C@H](C)[C@H](NC(=O)[C@H](CCCCN)NC(=O)[C@@H](N)Cc1c[nH]c2ccccc12)C(=O)N[C@@H](CC(C)C)C(=O)N[C@H](C(=O)N[C@H](C(=O)N[C@@H](CCCCN)C(=O)N1CCC[C@H]1C(=O)NCC(=O)N[C@@H](CCC(N)=O)C(=O)N1CCC[C@H]1C(=O)N[C@@H](CCSC)C(=O)N[C@@H](Cc1ccc(O)cc1)C(=O)O)[C@@H](C)CC)[C@@H](C)O [compound 155] (H-WKILTIKPGQPMY-OH; N-terminus and C-terminus assumed) |  |  |  | <90% | <90%
3 | CC[C@H](C)[C@H](NC(=O)[C@H](Cc1c[nH]c2ccccc12)NC(=O)[C@H](CCC(=O)O)NC(=O)[C@@H](N)CCCCN)C(=O)N[C@@H](CCC(N)=O)C(=O)N[C@@H](CC(C)C)C(=O)N[C@@H](CCCCN)C(=O)N[C@@H](CC(C)C)C(=O)NCC(=O)N[C@@H](CCC(N)=O)C(=O)N1CCC[C@H]1C(=O)N[C@@H](CCSC)C(=O)N[C@@H](Cc1ccc(O)cc1)C(=O)O [compound 31] (H-KEWIQLKLGQPMY-OH; N-terminus and C-terminus assumed) |  |  |  | <90% | <90%
4 | CSCC[C@H](NC(=O)[C@H](CO)NC(=O)[C@H](CCC(N)=O)NC(=O)CNC(=O)[C@@H]1CCCN1C(=O)[C@H](CCCCN)NC(=O)[C@H](CC(C)C)NC(=O)[C@H](CCCNC(=N)N)NC(=O)[C@H](CC(C)C)NC(=O)[C@H](Cc1ccc(O)cc1)NC(=O)[C@H](Cc1c[nH]cn1)NC(=O)[C@@H](N)Cc1c[nH]c2ccccc12)C(=O)N[C@@H](Cc1ccc(O)cc1)C(=O)O [compound 70] (H-WHYLRLKPGQSMY-OH; N-terminus and C-terminus assumed) | <90% |  | <90% | 100% | 100%
5 | CSCC[C@H](NC(=O)[C@@H]1CCCN1C(=O)[C@H](CCC(N)=O)NC(=O)CNC(=O)[C@@H]1CCCN1C(=O)[C@H](CCCCN)NC(=O)[C@H](Cc1ccccc1)NC(=O)[C@H](CCC(=O)O)NC(=O)[C@H](CC(C)C)NC(=O)[C@H](CO)NC(=O)[C@H](Cc1c[nH]cn1)NC(=O)[C@@H](N)CCCCN)C(=O)N[C@@H](Cc1ccc(O)cc1)C(=O)O [compound 165] (H-KHSLEFKPGQPMY-OH; N-terminus and C-terminus assumed) |  |  |  | <90% | <90%
6 | CC[C@H](C)[C@H](NC(=O)[C@H](CCCNC(=N)N)NC(=O)[C@@H](NC(=O)[C@H](Cc1c[nH]c2ccccc12)NC(=O)[C@H](Cc1c[nH]cn1)NC(=O)[C@@H](N)Cc1c[nH]c2ccccc12)C(C)C)C(=O)N[C@@H](Cc1c[nH]c2ccccc12)C(=O)N1CCC[C@H]1C(=O)NCC(=O)N[C@@H](CCC(N)=O)C(=O)N1CCC[C@H]1C(=O)N[C@@H](CCSC)C(=O)N[C@@H](Cc1ccc(O)cc1)C(=O)O [compound 51] (H-WHWVRIWPGQPMY-OH; N-terminus and C-terminus assumed) | <90% | <90% | 97.13% | 100% | 100%
7 | CSCC[C@H](NC(=O)[C@H](CC(C)C)NC(=O)[C@H](CCC(N)=O)NC(=O)[C@@H](NC(=O)[C@H](Cc1c[nH]c2ccccc12)NC(=O)[C@H](Cc1c[nH]cn1)NC(=O)[C@@H](N)CCCCN)C(C)C)C(=O)N[C@@H](CCCCN)C(=O)NCC(=O)N[C@@H](CCC(N)=O)C(=O)N1CCC[C@H]1C(=O)N[C@@H](CCSC)C(=O)N[C@@H](Cc1ccc(O)cc1)C(=O)O [compound 21] (H-KHWVQLMKGQPMY-OH; N-terminus and C-terminus assumed) | <90% |  | <90% | 100% | 100%
8 | CSCC[C@H](NC(=O)[C@@H]1CCCN1C(=O)[C@H](CCC(N)=O)NC(=O)CNC(=O)[C@H](CC(N)=O)NC(=O)[C@H](CCCCN)NC(=O)[C@H](CC(C)C)NC(=O)[C@H](CO)NC(=O)CNC(=O)[C@H](Cc1c[nH]c2ccccc12)NC(=O)[C@H](CCCCN)NC(=O)[C@@H](N)Cc1c[nH]c2ccccc12)C(=O)N[C@@H](Cc1ccc(O)cc1)C(=O)O [compound 98] (H-WKWGSLKNGQPMY-OH; N-terminus and C-terminus assumed) | <90% |  | <90% | 95.59% | 100%
9 | CSCC[C@H](NC(=O)[C@@H]1CCCN1C(=O)[C@H](CCC(N)=O)NC(=O)CNC(=O)[C@@H]1CCCN1C(=O)[C@H](Cc1c[nH]cn1)NC(=O)[C@H](CC(C)C)NC(=O)[C@H](CCC(N)=O)NC(=O)[C@@H](NC(=O)[C@H](CO)NC(=O)[C@H](Cc1c[nH]cn1)NC(=O)[C@@H](N)Cc1c[nH]c2ccccc12)C(C)C)C(=O)N[C@@H](Cc1ccc(O)cc1)C(=O)O [compound 174] (H-WHSVQLHPGQPMY-OH; N-terminus and C-terminus assumed) |  |  |  | <90% | <90%
10 | CSCC[C@H](NC(=O)CNC(=O)[C@H](CCC(N)=O)NC(=O)CNC(=O)[C@@H]1CCCN1C(=O)[C@H](CCCCN)NC(=O)[C@H](CC(C)C)NC(=O)[C@H](CO)NC(=O)[C@H](CC(C)C)NC(=O)[C@H](Cc1c[nH]c2ccccc12)NC(=O)[C@H](CO)NC(=O)[C@@H](N)CCCCN)C(=O)N[C@@H](Cc1ccc(O)cc1)C(=O)O [compound 32] (H-KSWLSLKPGQGMY-OH; N-terminus and C-terminus assumed) |  |  |  | <90% | <90%
11 | CC[C@H](C)[C@H](NC(=O)[C@H](Cc1c[nH]c2ccccc12)NC(=O)[C@H](CCCCN)NC(=O)[C@@H]1CCCN1)C(=O)N[C@@H](CCCNC(=N)N)C(=O)N[C@@H](CC(C)C)C(=O)N[C@@H](CCCCN)C(=O)N1CCC[C@H]1C(=O)NCC(=O)N[C@@H](CCC(N)=O)C(=O)N1CCC[C@H]1C(=O)N[C@@H](CCSC)C(=O)N[C@@H](Cc1ccc(O)cc1)C(=O)O [compound 19] (H-PKWIRLKPGQPMY-OH; N-terminus and C-terminus assumed) | <90% |  | <90% | 100% | 100%
12 | CSCC[C@H](NC(=O)CNC(=O)[C@H](CCC(N)=O)NC(=O)CNC(=O)[C@H](CC(N)=O)NC(=O)[C@H](CCCCN)NC(=O)[C@H](CC(C)C)NC(=O)[C@H](C)NC(=O)[C@@H](NC(=O)[C@H](Cc1c[nH]c2ccccc12)NC(=O)[C@H](Cc1c[nH]cn1)NC(=O)[C@@H](N)Cc1c[nH]c2ccccc12)C(C)C)C(=O)N[C@@H](Cc1ccc(O)cc1)C(=O)O [compound 23] (H-WHWVALKNGQGMY-OH; N-terminus and C-terminus assumed) | <90% |  | <90% | 98.68% | 100%
13 | CSCC[C@H](NC(=O)[C@@H]1CCCN1C(=O)[C@H](CCC(N)=O)NC(=O)CNC(=O)[C@@H]1CCCN1C(=O)[C@H](CCCCN)NC(=O)[C@H](Cc1ccccc1)NC(=O)[C@H](CC(N)=O)NC(=O)[C@H](CC(C)C)NC(=O)[C@H](Cc1ccccc1)NC(=O)[C@H](Cc1c[nH]cn1)NC(=O)[C@@H](N)CCCCN)C(=O)N[C@@H](Cc1ccc(O)cc1)C(=O)O [compound 78] (H-KHFLNFKPGQPMY-OH; N-terminus and C-terminus assumed) | <90% |  | <90% | 100% | 100%
14 | CC[C@H](C)[C@H](NC(=O)[C@H](CCC(N)=O)NC(=O)[C@H](CC(C)C)NC(=O)[C@H](Cc1c[nH]c2ccccc12)NC(=O)[C@H](CCCNC(=N)N)NC(=O)[C@@H]1CCCN1)C(=O)N[C@@H](CCCCN)C(=O)N[C@@H](CCCCN)C(=O)NCC(=O)N[C@@H](CCC(N)=O)C(=O)N[C@@H](CO)C(=O)N[C@@H](CCSC)C(=O)N[C@@H](Cc1ccc(O)cc1)C(=O)O [compound 63] (H-PRWLQIKKGQSMY-OH; N-terminus and C-terminus assumed) | <90% |  | <90% | 100% | 100%
